Like-named read-outs stand apart in the source and are kept apart here.
Key:
[1] = Human plasma stability; type: in vitro ADME
Experimental: The plasma stability of compound IB′ was determined using plasma from four species.

[2] = type: in vitro ADME, rat; conditions: for % Remaining: rat, plasma
Experimental: (§1) The plasma stability of compound IB′ was determined using plasma from four species. Results for mouse, rat, dog and human are shown in Tables 5, 6, 7 and 8 respectively. Alvocidib and flumazenil were used as controls. In mouse, rat and human plasma, compound IB′ maintained 100% stability after 5 hour incubation. In dog plasma, approximately 90% of compound IB′ remained after 5 hours.

[3] = for MTDrepeat: female SHO SCID mice, five daily doses
Experimental: Repeat dose toxicology studies were performed in female SHO SCID mice using 3 animals per treatment group. […] Body weight measurements of animals treated by oral (see FIGS. 3A-B) and intravenous (see FIG. 3C-D) dosing over the course of the 5-day repeat dosing period and subsequent 5-day observation period, along with mortality and clinical observations, were used to determine the maximum tolerated dosing schedule (MTDrepeat).

[4] = rat, in vivo, po
[5] = female SHO SCID mice, single dose
Experimental: Acute studies were performed in female SHO SCID mice using three animals per treatment group. […] Body weight measurements following oral dosing (FIGS. 2A-B) and intravenous (IV) dosing (FIG. 2C-D) were used, along with mortality and clinical observations to determine the maximum tolerated acute dose (MTDacute).

[6] = type: in vitro ADME, mouse; conditions: for % Remaining: mouse, plasma
Experimental: as §1

[7] = Dog plasma stability; type: in vitro ADME
Experimental: as §1

[8] = CD-1, mouse, in vivo
[9] = Maximum tolerated acute dose in rats
[10] = Pharmacokinetic profile of alvocidib prodrugs in CD-1 mice (IV/PO)
[11] = rats, single oral dose 36 mg/kg

CN1CC[C@H](c2c(O)cc(O)c3c(=O)cc(-c4ccccc4Cl)oc23)[C@H](O)C1 [Alvocidib]
% Remaining ([1]; human plasma, 0 hours): 100.00% | % Remaining ([1]; human plasma, 0.5 hours): 92.61% | % Remaining ([1]; human plasma, 1 hour): 93.54% | % Remaining ([1]; human plasma, 2 hours): 93.29% | % Remaining ([1]; human plasma, 3 hours): 111.62% | % Remaining ([1]; human plasma, 4 hours): 100.25% | % Remaining ([1]; human plasma, 5 hours): 100% | % Remaining ([2]; 0 h): 100.00% | % Remaining ([2]; 0.5 h): 93.12% | % Remaining ([2]; 1 h): 90.20% | % Remaining ([2]; 2 h): 99.31% | % Remaining ([2]; 3 h): 98.69% | % Remaining ([2]; 4 h): 92.57% | MTDrepeat ([3]; dosed intravenously): 7.5 mg/kg | MTDrepeat ([3]; dosed orally): 7.5 mg/kg | clinical observations ([3]; mouse, in vivo, 15 mg/kg): Lethargy, body weight loss, and deaths were observed | HCT ([4]; 4.5 mg/kg): 43.6% | MCH ([4]; 4.5 mg/kg): 18.7 pg | MCHC ([4]; 4.5 mg/kg): 35.4 g/dL | MCV ([4]; 4.5 mg/kg): 52.7 fL | PLT ([4]; 4.5 mg/kg): 34.7 10^3/μL | RBC ([4]; 4.5 mg/kg): 8.3 10^6/μL | RDWA ([4]; 4.5 mg/kg): 16.0 fL | WBC ([4]; 4.5 mg/kg): 15.4 10^3/μL | platelet counts versus normal range ([4]; 4.5 mg/kg): outside the normal range | HCT ([4]; 9 mg/kg): 47.1% | MCH ([4]; 9 mg/kg): 19.3 pg | MCHC ([4]; 9 mg/kg): 35.7 g/dL | MCV ([4]; 9 mg/kg): 54.0 fL | PLT ([4]; 9 mg/kg): 36.3 10^3/μL | RBC ([4]; 9 mg/kg): 8.7 10^6/μL | RDWA ([4]; 9 mg/kg): 16.2 fL | WBC ([4]; 9 mg/kg): 16.8 10^3/μL | HCT ([4]; 18 mg/kg): 47.3% | MCH ([4]; 18 mg/kg): 19.3 pg | MCHC ([4]; 18 mg/kg): 35.9 g/dL | MCV ([4]; 18 mg/kg): 53.8 fL | PLT ([4]; 18 mg/kg): 36.1 10^3/μL | RBC ([4]; 18 mg/kg): 8.8 10^6/μL | RDWA ([4]; 18 mg/kg): 16.1 fL | WBC ([4]; 18 mg/kg): 16.9 10^3/μL | abnormal food consumption patterns ([4]; 18 mg/kg): abnormal food consumption patterns were observed | diarrhea ([4]; 18 mg/kg): did show signs of diarrhea | MTDacute ([5]; dosed intravenously): 7.5 mg/kg | MTDacute ([5]; dosed orally): 15 mg/kg | % Remaining ([6]; 0 h): 100.00% | % Remaining ([6]; 0.5 h): 93.58% | % Remaining ([6]; 1 h): 103.12% | % Remaining ([6]; 2 h): 97.19% | % Remaining ([6]; 3 h): 117.38% | % Remaining ([6]; 4 h): 115.72% | % Remaining ([7]; dog plasma, 0 hours): 100.00% | % Remaining ([7]; dog plasma, 0.5 hours): 96.41% | % Remaining ([7]; dog plasma, 1 hour): 89.16% | % Remaining ([7]; dog plasma, 2 hours): 105.76% | % Remaining ([7]; dog plasma, 3 hours): 105.84% | % Remaining ([7]; dog plasma, 4 hours): 97.65% | % Remaining ([7]; dog plasma, 5 hours): 100.40% | % Remaining ([7]; dog plasma, 5 hours, listed as alvocidib): 100% | Bioavail. [8]: 102 ± 11.7 % F | AUC0-∞ ([8]; iv, 1 mg/kg): 517.0 ± 47.0 ng·h/mL | AUCLast ([8]; iv, 1 mg/kg): 498.0 ± 46.0 ng·h/mL | Clearance ([8]; iv, 1 mg/kg): 31.7 ± 3.3 mL/min/kg | Half life ([8]; iv, 1 mg/kg): 2.0 ± 0.4 h | Vd ([8]; iv, 1 mg/kg): 5.5 ± 1.2 L/kg | VdSS ([8]; iv, 1 mg/kg): 3.8 ± 0.6 L/kg | AUC0-∞ ([8]; po, 10 mg/kg): 5341.1 ± 274.2 ng·h/mL | AUCLast ([8]; po, 10 mg/kg): 5034.1 ± 145.6 ng·h/mL | Half life ([8]; po, 10 mg/kg): 5.7 ± 0.7 h | NOAEL ([9]; female, Sprague Dawley, rat, in vivo, po): 9 mg/kg

CN1CCC(c2c(OP(=O)(O)O)cc(O)c3c(=O)cc(-c4ccccc4Cl)oc23)C(O)C1 (stereo not drawn) [Compound IB]
MTDrepeat ([3]; dosed orally): 7.5 mg/kg | clinical observations [9, 11]: Diarrhea, body weight loss and increased lethargy were observed | mortality [9, 11]: one animal died on day three, one animal died on day four, and one animal died on day 5

CN1CC[C@H](c2c(O)cc(O)c3c(=O)cc(-c4ccccc4Cl)oc23)[C@H](OC(=O)C(C)(C)C)C1 [E]
conversion to alvocidib in vivo (alvocidib detected in plasma samples) [10]: did not convert to alvocidib in vivo

C[N+]1(C)CC[C@H](c2c(O)cc(O)c3c(=O)cc(-c4ccccc4Cl)oc23)[C@H](O)C1 [F]
conversion to alvocidib in vivo (alvocidib detected in plasma samples) [10]: did not convert to alvocidib in vivo

CCOC(=O)c1ncn2c1CN(C)C(=O)c1cc(F)ccc1-2 [Flumazenil]
% Remaining ([1]; human, plasma, 0 h): 100.00% | % Remaining ([1]; human, plasma, 0.5 h): 96.56% | % Remaining ([1]; human, plasma, 1 h): 90.83% | % Remaining ([1]; human, plasma, 2 h): 92.41% | % Remaining ([1]; human, plasma, 3 h): 117.98% | % Remaining ([1]; human, plasma, 4 h): 95.32% | % Remaining ([1]; human, plasma, 5 h): 94.63% | plasma stability (in words) [2]: unstable | % Remaining ([2]; 0 h): 100.00% | % Remaining ([2]; 0.5 h): 42.23% | % Remaining ([2]; 1 h): 16.13% | % Remaining ([2]; 2 h): 1.69% | % Remaining ([2]; 3 h): 0.23% | % Remaining ([2]; 4 h): 0.00% | % Remaining ([2]; 5 h): 0.00% | plasma stability (in words) [6]: unstable | % Remaining ([6]; 0 h): 100.00% | % Remaining ([6]; 0.5 h): 29.96% | % Remaining ([6]; 1 h): 10.21% | % Remaining ([6]; 2 h): 1.56% | % Remaining ([6]; 3 h): 0.39% | % Remaining ([6]; 4 h): 0.20% | % Remaining ([6]; 5 h): 0.07% | % Remaining ([7]; dog, plasma, 0 h): 100.00% | % Remaining ([7]; dog, plasma, 0.5 h): 91.80% | % Remaining ([7]; dog, plasma, 1 h): 92.00% | % Remaining ([7]; dog, plasma, 2 h): 100.99% | % Remaining ([7]; dog, plasma, 3 h): 115.10% | % Remaining ([7]; dog, plasma, 4 h): 99.44% | % Remaining ([7]; dog, plasma, 5 h): 100.53%

From patent US12338261B2 (SUMITOMO PHARMA ONCOLOGY, INC., priority 2015, dated 2025)
